Measured values as given in US6630500B2, “Selected fused pyrrolocarbazoles” (Cephalon, Inc., priority 2000, dated 2003).

Key:
Assay type in all cases: biochemical
[1] = target: T1, MLK3 (Homo sapiens, UniProt Q16584); experiment: Inhibition of Mixed Lineage Kinase-3 (MLK3) activity; conditions: 100 μM ATP; for IC50: values without % sign; for inhibition at 0.1 µM: 100 nM compound
T1 construct: 2 μg/ml of baculoviral GST-MLK3KD; GST (N); made in house
Experimental: (§1) The kinase activity of MLK1 was assessed using the Millipore Multiscreen TCA “in-plate” format as described for protein kinase C (Pitt & Lee, J. Biomol. Screening, 1: 47-51, 1996). Briefly, each 50-μl assay mixture contained 20 mM Hepes, pH 7.2, 5 mM EGTA, 15 mM MgCl2, 25 mM β-glycerophosphate, 60 μM ATP, 0.25 μCi [γ-^32P]ATP, 0.1% BSA, 500 μ/ml myelin basic protein (UBI #13-104), 2% DMSO, 1 μM of test compound, and 1 μg/ml of baculoviral GST-MLK1KD. Samples were incubated for 15 min at 37° C. The reaction was stopped by adding ice cold 50% TCA and the proteins were allowed to precipitate for 30 min at 4° C. The plates were then washed with ice cold 25% TCA. Supermix scintillation cocktail was added, and the plates were allowed to equilibrate for 1-2 hours prior to counting using the Wallac MicroBeta 1450 PLUS scintillation counter.
(§2) Assays were performed using the Millipore Multiscreen plate format as described for MLK1. Briefly, each 50-μl assay mixture contained 20 mM Hepes, pH 7.2, 5 mM EGTA, 15 mM MgCl2, 25 mM β-glycerophosphate, 100 μM ATP, 0.25 μCi [γ-^32P]ATP, 0.1% BSA, 500 μg/ml myelin basic protein (UBI #13-104), 2% DMSO, various concentrations of test compound, and 2 μg/ml of baculoviral GST-MLK3KD. Sample were incubated for 15 min at 37° C. The reaction was stopped by adding ice cold 50% TCA and the proteins were allowed to precipitate for 30 min at 4° C. The plates were then washed with ice cold 25% TCA. Supermix scintillation cocktail was added, and the plates were allowed to equilibrate for 1-2 hours prior to counting.

[2] = target: T2, VEGF receptor (human flk-1, KDR, VEGFR2) kinase domain (Homo sapiens, UniProt P35968); experiment: Inhibition of VEGF receptor kinase activity (ELISA); conditions: 40 μM ATP; for IC50: values without % sign; for inhibition at 0.3 µM: 300 nM compound, read-out: VEGFR2 % inh. @ 300 nM
T2 construct: VEGF receptor (human flk-1, KDR, VEGFR2) kinase domain; made in house
Experimental: Fused pyrrolocarbazole compounds were examined for their inhibitory effects on the kinase activity of baculovirus-expressed VEGF receptor (human flk-1, KDR, VEGFR2) kinase domain using the procedure described for the trkA kinase ELISA assay described below. The kinase reaction mixture, consisting of 50 mM Hepes, pH 7.4, 40 μM ATP, 10 mM MnCl2, 0.1% BSA, 2% DMSO, and various concentrations of inhibitor, was transferred to PLC-γ/GST-coated plates. VEGFR kinase was added and the reaction was allowed to proceed for 15 min. at 37° C. Detection of phosphorylated product was accomplished by addition of anti-phosphotyrosine antibody (UBI). A secondary enzyme-conjugated antibody was delivered to capture the antibody-phosphorylated PLC-γ/GST complex. The activity of the bound enzyme was measured via an amplified detection system (Gibco-BRL). Inhibition data were analyzed using the sigmoidal dose-response (variable slope) equation in GraphPad Prism.
Selected isomeric fused pyrrolocarbazole and isoindolone compounds can be tested for their ability to inhibit the kinase activity of baculovirus-expressed human trkA cytoplasmic domain using an ELISA-based assay as previously described (Angeles et al., Anal. Biochem. 236: 49-55, 1996). Briefly, the 96-well microtiter plate is coated with substrate solution (recombinant human phospholipase C-γl/glutathione S-transferase fusion protein (Rotin et al., EMBO J., 11: 559-567, 1992). Inhibition studies are performed in 100 μl assay mixtures containing 50 mM Hepes, pH 7.4, 40 μM ATP, 10 mM MnCl2, 0.1% BSA, 2% DMSO, and various concentrations of inhibitor. The reaction is initiated by addition of trkA kinase and allowed to proceed for 15 minutes at 37° C. An antibody to phosphotyrosine (UBI) is then added, followed by a secondary enzyme-conjugated antibody, alkaline phosphatase-labelled goat anti-mouse IgG (Bio-Rad). The activity of the bound enzyme is measured via an amplified detection system (Gibco-BRL). Inhibition data are analyzed using the sigmoidal dose-response (variable slope) equation in GraphPad Prism.

[3] = target: T3, MLK1 (Homo sapiens, UniProt P80192); experiment: Inhibition of Mixed Lineage Kinase-1 (MLK1) activity; conditions: 60 μM ATP; for IC50: values without % sign; for inhibition at 0.1 µM: 100 nM compound
T3 construct: 1 μg/ml of baculoviral GST-MLK1KD; GST (N); made in house
Experimental: The kinase activity of MLK1 was assessed using the Millipore Multiscreen TCA “in-plate” format as described for protein kinase C (Pitt & Lee, J. Biomol. Screening, 1: 47-51, 1996). Briefly, each 50-μl assay mixture contained 20 mM Hepes, pH 7.2, 5 mM EGTA, 15 mM MgCl2, 25 mM β-glycerophosphate, 60 μM ATP, 0.25 μCi [γ-^32P]ATP, 0.1% BSA, 500 μ/ml myelin basic protein (UBI #13-104), 2% DMSO, […], and 1 μg/ml of baculoviral GST-MLK1KD. Samples were incubated for 15 min at 37° C. The reaction was stopped by adding ice cold 50% TCA and the proteins were allowed to precipitate for 30 min at 4° C. The plates were then washed with ice cold 25% TCA. Supermix scintillation cocktail was added, and the plates were allowed to equilibrate for 1-2 hours prior to counting using the Wallac MicroBeta 1450 PLUS scintillation counter.

[4] = target: T4, MLK2 (Homo sapiens, UniProt Q02779); experiment: Inhibition of Mixed Lineage Kinase-2 (MLK2) activity; conditions: 100 μM ATP
T4 construct: fused on or other part: GST tag
Experimental: as §1
as §2, with “MLK1. Each” for “MLK1. Briefly, each”, “and 3” for “and 2”, “baculoviral GST-MLK2KDLZ. Samples” for “baculoviral GST-MLK3KD. Sample”, “15 min.” for “15 min”

T3 sequence (P80192 144-412 limits assumed, species assumed): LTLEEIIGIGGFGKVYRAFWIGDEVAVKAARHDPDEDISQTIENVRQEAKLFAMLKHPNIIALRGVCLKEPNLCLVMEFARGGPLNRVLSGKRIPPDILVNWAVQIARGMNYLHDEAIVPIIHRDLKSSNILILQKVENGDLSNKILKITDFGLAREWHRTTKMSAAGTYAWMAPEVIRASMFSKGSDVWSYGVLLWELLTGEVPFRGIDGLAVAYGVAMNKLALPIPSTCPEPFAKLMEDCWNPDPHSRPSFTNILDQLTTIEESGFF
T2 sequence (P35968 834-1162 limits assumed): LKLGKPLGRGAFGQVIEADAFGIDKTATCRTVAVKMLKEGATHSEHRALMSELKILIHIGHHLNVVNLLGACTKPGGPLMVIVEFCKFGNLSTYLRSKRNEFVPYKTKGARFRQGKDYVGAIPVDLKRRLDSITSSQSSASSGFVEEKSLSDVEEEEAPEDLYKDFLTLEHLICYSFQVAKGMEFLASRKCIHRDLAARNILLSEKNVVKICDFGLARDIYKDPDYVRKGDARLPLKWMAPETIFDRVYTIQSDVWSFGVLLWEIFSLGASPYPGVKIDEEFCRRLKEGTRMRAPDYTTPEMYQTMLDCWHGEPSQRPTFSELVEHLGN
T1 sequence (Q16584 117-379 limits assumed, species assumed): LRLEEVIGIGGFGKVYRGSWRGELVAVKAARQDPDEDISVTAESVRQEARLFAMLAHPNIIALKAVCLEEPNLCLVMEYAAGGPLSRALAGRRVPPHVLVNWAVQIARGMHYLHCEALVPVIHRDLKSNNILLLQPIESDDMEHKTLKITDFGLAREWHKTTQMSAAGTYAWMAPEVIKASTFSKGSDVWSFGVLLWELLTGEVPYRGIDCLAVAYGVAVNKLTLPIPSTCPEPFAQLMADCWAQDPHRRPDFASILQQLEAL
T4 sequence (Q02779 98-440 limits assumed): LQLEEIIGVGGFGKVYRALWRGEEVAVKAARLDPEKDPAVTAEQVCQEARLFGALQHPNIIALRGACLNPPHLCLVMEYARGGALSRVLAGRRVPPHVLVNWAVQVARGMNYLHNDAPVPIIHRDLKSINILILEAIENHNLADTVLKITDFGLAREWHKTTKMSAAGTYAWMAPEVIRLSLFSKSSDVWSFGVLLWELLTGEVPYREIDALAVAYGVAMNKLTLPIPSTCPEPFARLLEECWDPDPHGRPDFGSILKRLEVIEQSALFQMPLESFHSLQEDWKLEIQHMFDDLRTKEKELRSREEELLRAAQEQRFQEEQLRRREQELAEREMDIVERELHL

CCOCc1ccc2c(c1)c1c3c(c4c(c1n2CCCO)Cc1ccccc1-4)C(=O)NC3 [Compound 1]
IC50 [1]: 4 nM | IC50 [2]: 4 nM | IC50 [3]: 21 nM

CCSCc1ccc2c(c1)c1c3c(c4c(c1n2CCCO)Cc1ccccc1-4)C(=O)NC3 [Compound 25]
IC50 [1]: 12 nM | IC50 [2]: 21 nM | IC50 [3]: 22 nM

CCCSCc1ccc2c(c1)c1c3c(c4c(c1n2CCCOC(=O)C(F)(F)F)Cc1ccccc1-4)C(=O)NC3 [Compound 37]
inhibition at 0.3 µM [2]: 37% | IC50 [3]: 17 nM

CC(C)OCc1ccc2c(c1)c1c3c(c4c(c1n2CCCO)C(CO)c1ccccc1-4)C(=O)NC3 (stereo not shown) [Compound 40]
IC50 ([4]; values without % sign): 86 nM | IC50 [2]: 16 nM | IC50 [3]: 21 nM

CC(C)SCc1ccc2c(c1)c1c3c(c4c(c1n2CCCO)Cc1ccccc1-4)C(=O)NC3 [Compound 27]
IC50 [2]: 57 nM | IC50 [3]: 22 nM

CCCCOCc1ccc2c(c1)c1c3c(c4c(c1n2CCCO)Cc1ccccc1-4)C(=O)NC3 [Compound 9]
IC50 [1]: 15 nM | IC50 [2]: 18 nM | IC50 [3]: 26 nM

CCOCc1ccc2[nH]c3c4c(c5c(c3c2c1)CNC5=O)-c1ccccc1C4C(C)O (single isomer, unassigned) [Compound 14]
IC50 [1]: 9 nM | IC50 [2]: 72 nM | inhibition at 0.1 µM [3]: 93%

CCSCc1ccc2c(c1)c1c3c(c4c(c1n2CCO)Cc1ccccc1-4)C(=O)NC3 [Compound 24]
inhibition at 0.1 µM [1]: 55% | inhibition at 0.3 µM [2]: 31% | inhibition at 0.1 µM [3]: 62%

O=C1NCc2c1c1c(c3c2c2cc(CO)ccc2n3CCO)Cc2ccccc2-1 [Compound 28]
IC50 [1]: 74 nM | inhibition at 0.3 µM [2]: 34% | IC50 [3]: 76 nM

CCOCc1ccc2c(c1)c1c3c(c4c(c1n2CC(C)O)Cc1ccccc1-4)C(=O)NC3 (stereo not shown) [Compound 7]
IC50 [1]: 30 nM | IC50 [2]: 25 nM | inhibition at 0.1 µM [3]: 85%

CC(C)OCc1ccc2c(c1)c1c3c(c4c(c1n2CCCOC(=O)C(N)CCCCN)Cc1ccccc1-4)C(=O)NC3 (stereo not shown) [Compound 19]
inhibition at 0.1 µM ([4]; 100 nM compound): 28% | inhibition at 0.3 µM [2]: 60% | inhibition at 0.1 µM [3]: 44%

CCCCOC(C)c1ccc2c(c1)c1c3c(c4c(c1n2CCCO)Cc1ccccc1-4)C(=O)NC3 (stereo not shown) [Compound 15]
IC50 [1]: 27 nM | IC50 [2]: 130 nM | IC50 [3]: 41 nM

CC(C)OCc1ccc2c(c1)c1c3c(c4c(c1n2CCCOC(=O)CCCN(C)C)Cc1ccccc1-4)C(=O)NC3 [Compound 21]
inhibition at 0.3 µM [2]: 48% | inhibition at 0.1 µM [3]: 40%

CCOC(C)c1ccc2c(c1)c1c3c(c4c(c1n2CCCO)Cc1ccccc1-4)C(=O)NC3 (stereo not shown) [Compound 10]
IC50 [1]: 15 nM | IC50 [2]: 83 nM | IC50 [3]: 37 nM

CC(C)OC(C)c1ccc2c(c1)c1c3c(c4c(c1n2CCCO)Cc1ccccc1-4)C(=O)NC3 (stereo not shown) [Compound 16]
inhibition at 0.1 µM [1]: 49% | IC50 [2]: 411 nM | inhibition at 0.1 µM [3]: 66%

COc1ccc2[nH]c3c4c(c5c(c3c2c1)CNC5=O)-c1ccccc1C4 [D, reference compound]
inhibition at 0.1 µM [1]: 43% | IC50 [2]: 200 nM | IC50 [3]: 45 nM

O=C1NCc2c1c1c(c3c2c2cc(CSc4ncccn4)ccc2n3CCCO)Cc2ccccc2-1 [Compound 39]
inhibition at 0.1 µM [1]: 56% | inhibition at 0.3 µM [2]: 13% | inhibition at 0.1 µM [3]: 55%

CCOCc1ccc2[nH]c3c4c(c5c(c3c2c1)CNC5=O)-c1ccccc1C4 [Compound 31]
IC50 [1]: 29 nM | IC50 [2]: 77 nM | IC50 [3]: 46 nM

CC(C)OCc1ccc2c(c1)c1c3c(c4c(c1n2CCCO)Cc1ccccc1-4)C(=O)NC3 [Compound 3]
IC50 [1]: 9 nM | IC50 [2]: 7 nM | IC50 [3]: 17 nM

CC(C)OCc1ccc2[nH]c3c4c(c5c(c3c2c1)CNC5=O)-c1ccccc1C4 [Compound 32]
IC50 [1]: 19 nM | inhibition at 0.3 µM [2]: 33% | IC50 [3]: 24 nM

CCOC(C)c1ccc2c(c1)c1c3c(c4c(c1n2CCCO)Cc1ccccc1-4)C(=O)NC3 (single isomer, unassigned) [Compound 11]
IC50 [1]: 20 nM | IC50 [2]: 65 nM | IC50 [3]: 78 nM

COC(C)c1ccc2[nH]c3c4c(c5c(c3c2c1)CNC5=O)-c1ccccc1C4 (racemic) [Compound 36]
inhibition at 0.1 µM [1]: 41% | inhibition at 0.3 µM [2]: 12% | IC50 [3]: 26 nM

O=C1NCc2c1c1c(c3c2c2cc(CSc4ccccn4)ccc2n3CCCO)Cc2ccccc2-1 [Compound 38]
IC50 [1]: 30 nM | inhibition at 0.3 µM [2]: 45% | inhibition at 0.1 µM [3]: 58%

CC(C)OCc1ccc2c(c1)c1c3c(c4c(c1n2CCCOC(=O)CCCCCN)Cc1ccccc1-4)C(=O)NC3 [Compound 23]
inhibition at 0.3 µM [2]: 57% | inhibition at 0.1 µM [3]: 31%

CC(O)c1ccc2[nH]c3c4c(c5c(c3c2c1)CNC5=O)-c1ccccc1C4 (stereo not shown) [Compound 35]
inhibition at 0.1 µM [1]: 62% | inhibition at 0.3 µM [2]: 37% | inhibition at 0.1 µM [3]: 60%

CC(C)OCc1ccc2c(c1)c1c3c(c4c(c1n2CCCOC(=O)CN)Cc1ccccc1-4)C(=O)NC3 [Compound 18]
IC50 [1]: 23 nM | IC50 [2]: 23 nM | IC50 [3]: 47 nM

CC(O)c1ccc2c(c1)c1c3c(c4c(c1n2CCCO)Cc1ccccc1-4)C(=O)NC3 (stereo not shown) [Compound 33]
IC50 [1]: 16 nM | IC50 [2]: 111 nM | IC50 [3]: 50 nM

CCC(C)OCc1ccc2c(c1)c1c3c(c4c(c1n2CCCO)Cc1ccccc1-4)C(=O)NC3 (stereo not shown) [Compound 4]
IC50 [1]: 4 nM | IC50 [2]: 12 nM | IC50 [3]: 15 nM

COCc1ccc2c(c1)c1c3c(c4c(c1n2CCCO)Cc1ccccc1-4)C(=O)NC3 [Compound 2]
IC50 [1]: 8 nM | IC50 [2]: 17 nM | IC50 [3]: 15 nM

O=C1NCc2c1c1c(c3[nH]c4ccc(CO)cc4c23)Cc2ccccc2-1 [Compound 30]
IC50 [2]: 302 nM | IC50 [3]: 30 nM

CCC(O)c1ccc2c(c1)c1c3c(c4c(c1n2CCCO)Cc1ccccc1-4)C(=O)NC3 (stereo not shown) [Compound 34]
inhibition at 0.1 µM [1]: 32% | IC50 [2]: 7 nM | inhibition at 0.1 µM [3]: 45%
